Broadly, the IC50 is the concentration needed to halve the response being measured. Low readings indicate greater potency, high ones weaker potency.

The target of data set [1] is human Nav1.7 (Homo sapiens (Human), UniProt Q15858). Put plainly: Human Nav1.7 inhibitory activity evaluation (automated patch clamp QPatch16X, HEK293A cells stably expressing human Nav1.7 and human Navβ1). It is filed as cell-based. The following applies: human Nav1.7, automated patch clamp. Summed up:
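QPatch16X whole-cell recordings at room temperature from HEK293A cells stably expressing human Nav1.7 with Navβ1, CsF-based internal solution, pH 7.4 external, 0.1% DMSO. From −100 mV holding, protocol included a 15 s hold at a potential inactivating ~30-40% of channels; IC50 from inward current at the second −10 mV pulse.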
In general terms: In patch-clamp work, channel activity is measured electrically.

Data set [2] addresses human Nav1.5 (Homo sapiens (Human), UniProt Q14524). Put plainly: Human Nav1.5 inhibitory activity evaluation (automated patch clamp QPatch16X, HEK293 cells stably expressing human Nav1.5). It is filed as cell-based. The conditions noted are these: human Nav1.5, automated patch clamp. Summed up:
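Whole-cell automated patch clamp at room temperature on HEK293 stably expressing human Nav1.5; holding −80 mV, 20 consecutive cardiomyocyte action-potential-like test pulses before and after compound (0.1% DMSO). Inhibition measured on inward current at 20th pulse; IC50 from concentration-response curve.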

Bounds are passed on as bounds.

human Nav1.7, sequence (Q15858 whole entry): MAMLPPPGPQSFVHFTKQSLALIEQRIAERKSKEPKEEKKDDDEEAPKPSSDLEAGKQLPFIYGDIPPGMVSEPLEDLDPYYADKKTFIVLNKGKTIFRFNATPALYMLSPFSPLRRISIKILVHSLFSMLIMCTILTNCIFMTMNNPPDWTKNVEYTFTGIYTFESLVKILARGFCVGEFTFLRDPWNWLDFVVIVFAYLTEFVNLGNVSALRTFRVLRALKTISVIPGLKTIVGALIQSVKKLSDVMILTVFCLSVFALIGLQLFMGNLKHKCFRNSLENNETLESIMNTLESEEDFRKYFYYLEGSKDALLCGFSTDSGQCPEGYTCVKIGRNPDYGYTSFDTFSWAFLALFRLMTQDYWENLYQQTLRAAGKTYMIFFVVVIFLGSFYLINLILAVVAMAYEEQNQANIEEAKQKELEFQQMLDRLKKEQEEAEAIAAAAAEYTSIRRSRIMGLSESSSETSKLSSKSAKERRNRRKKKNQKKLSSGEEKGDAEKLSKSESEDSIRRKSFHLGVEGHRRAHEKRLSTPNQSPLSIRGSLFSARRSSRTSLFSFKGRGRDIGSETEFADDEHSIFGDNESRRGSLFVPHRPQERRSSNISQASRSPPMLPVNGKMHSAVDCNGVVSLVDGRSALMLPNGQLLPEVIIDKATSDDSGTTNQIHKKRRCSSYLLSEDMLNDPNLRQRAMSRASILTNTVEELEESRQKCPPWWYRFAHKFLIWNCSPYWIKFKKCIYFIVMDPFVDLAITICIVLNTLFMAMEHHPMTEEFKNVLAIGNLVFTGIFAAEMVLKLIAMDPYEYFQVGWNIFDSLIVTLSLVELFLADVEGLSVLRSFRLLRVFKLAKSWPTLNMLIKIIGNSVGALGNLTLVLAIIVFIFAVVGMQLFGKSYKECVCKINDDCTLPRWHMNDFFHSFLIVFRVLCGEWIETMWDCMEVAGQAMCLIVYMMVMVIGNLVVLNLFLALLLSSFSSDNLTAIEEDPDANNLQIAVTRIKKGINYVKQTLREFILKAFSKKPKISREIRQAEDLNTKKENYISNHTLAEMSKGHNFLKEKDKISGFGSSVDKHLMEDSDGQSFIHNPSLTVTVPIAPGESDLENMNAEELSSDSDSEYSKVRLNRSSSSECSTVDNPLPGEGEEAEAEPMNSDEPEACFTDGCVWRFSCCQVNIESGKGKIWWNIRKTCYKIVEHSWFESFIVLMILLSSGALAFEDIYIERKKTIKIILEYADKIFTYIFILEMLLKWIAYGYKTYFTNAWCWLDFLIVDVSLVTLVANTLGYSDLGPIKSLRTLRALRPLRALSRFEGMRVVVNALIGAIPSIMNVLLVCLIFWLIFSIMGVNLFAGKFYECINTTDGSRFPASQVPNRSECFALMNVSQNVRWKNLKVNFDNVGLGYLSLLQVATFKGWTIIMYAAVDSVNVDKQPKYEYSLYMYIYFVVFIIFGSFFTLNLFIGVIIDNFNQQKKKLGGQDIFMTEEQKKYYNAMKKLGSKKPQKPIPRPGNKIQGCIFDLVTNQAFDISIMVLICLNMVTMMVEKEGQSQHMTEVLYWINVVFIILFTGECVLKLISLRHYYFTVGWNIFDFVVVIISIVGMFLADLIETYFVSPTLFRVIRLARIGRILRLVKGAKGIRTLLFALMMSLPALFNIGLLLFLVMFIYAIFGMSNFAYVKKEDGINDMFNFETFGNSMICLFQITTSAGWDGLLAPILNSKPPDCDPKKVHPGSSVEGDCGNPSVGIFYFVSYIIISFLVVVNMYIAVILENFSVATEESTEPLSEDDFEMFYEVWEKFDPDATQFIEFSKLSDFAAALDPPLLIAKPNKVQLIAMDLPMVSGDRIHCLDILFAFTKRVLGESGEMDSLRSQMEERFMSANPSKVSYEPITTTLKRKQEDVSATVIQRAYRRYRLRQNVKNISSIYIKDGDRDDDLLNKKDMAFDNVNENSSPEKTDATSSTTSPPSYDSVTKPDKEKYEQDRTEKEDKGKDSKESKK
human Nav1.7, sequence (Q07699 19-218 partner): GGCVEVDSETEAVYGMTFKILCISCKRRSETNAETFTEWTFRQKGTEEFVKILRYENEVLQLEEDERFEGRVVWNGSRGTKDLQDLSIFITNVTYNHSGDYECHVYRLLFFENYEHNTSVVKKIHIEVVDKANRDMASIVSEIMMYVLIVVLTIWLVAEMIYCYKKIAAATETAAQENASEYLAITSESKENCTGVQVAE
human Nav1.5, sequence (Q14524 whole entry): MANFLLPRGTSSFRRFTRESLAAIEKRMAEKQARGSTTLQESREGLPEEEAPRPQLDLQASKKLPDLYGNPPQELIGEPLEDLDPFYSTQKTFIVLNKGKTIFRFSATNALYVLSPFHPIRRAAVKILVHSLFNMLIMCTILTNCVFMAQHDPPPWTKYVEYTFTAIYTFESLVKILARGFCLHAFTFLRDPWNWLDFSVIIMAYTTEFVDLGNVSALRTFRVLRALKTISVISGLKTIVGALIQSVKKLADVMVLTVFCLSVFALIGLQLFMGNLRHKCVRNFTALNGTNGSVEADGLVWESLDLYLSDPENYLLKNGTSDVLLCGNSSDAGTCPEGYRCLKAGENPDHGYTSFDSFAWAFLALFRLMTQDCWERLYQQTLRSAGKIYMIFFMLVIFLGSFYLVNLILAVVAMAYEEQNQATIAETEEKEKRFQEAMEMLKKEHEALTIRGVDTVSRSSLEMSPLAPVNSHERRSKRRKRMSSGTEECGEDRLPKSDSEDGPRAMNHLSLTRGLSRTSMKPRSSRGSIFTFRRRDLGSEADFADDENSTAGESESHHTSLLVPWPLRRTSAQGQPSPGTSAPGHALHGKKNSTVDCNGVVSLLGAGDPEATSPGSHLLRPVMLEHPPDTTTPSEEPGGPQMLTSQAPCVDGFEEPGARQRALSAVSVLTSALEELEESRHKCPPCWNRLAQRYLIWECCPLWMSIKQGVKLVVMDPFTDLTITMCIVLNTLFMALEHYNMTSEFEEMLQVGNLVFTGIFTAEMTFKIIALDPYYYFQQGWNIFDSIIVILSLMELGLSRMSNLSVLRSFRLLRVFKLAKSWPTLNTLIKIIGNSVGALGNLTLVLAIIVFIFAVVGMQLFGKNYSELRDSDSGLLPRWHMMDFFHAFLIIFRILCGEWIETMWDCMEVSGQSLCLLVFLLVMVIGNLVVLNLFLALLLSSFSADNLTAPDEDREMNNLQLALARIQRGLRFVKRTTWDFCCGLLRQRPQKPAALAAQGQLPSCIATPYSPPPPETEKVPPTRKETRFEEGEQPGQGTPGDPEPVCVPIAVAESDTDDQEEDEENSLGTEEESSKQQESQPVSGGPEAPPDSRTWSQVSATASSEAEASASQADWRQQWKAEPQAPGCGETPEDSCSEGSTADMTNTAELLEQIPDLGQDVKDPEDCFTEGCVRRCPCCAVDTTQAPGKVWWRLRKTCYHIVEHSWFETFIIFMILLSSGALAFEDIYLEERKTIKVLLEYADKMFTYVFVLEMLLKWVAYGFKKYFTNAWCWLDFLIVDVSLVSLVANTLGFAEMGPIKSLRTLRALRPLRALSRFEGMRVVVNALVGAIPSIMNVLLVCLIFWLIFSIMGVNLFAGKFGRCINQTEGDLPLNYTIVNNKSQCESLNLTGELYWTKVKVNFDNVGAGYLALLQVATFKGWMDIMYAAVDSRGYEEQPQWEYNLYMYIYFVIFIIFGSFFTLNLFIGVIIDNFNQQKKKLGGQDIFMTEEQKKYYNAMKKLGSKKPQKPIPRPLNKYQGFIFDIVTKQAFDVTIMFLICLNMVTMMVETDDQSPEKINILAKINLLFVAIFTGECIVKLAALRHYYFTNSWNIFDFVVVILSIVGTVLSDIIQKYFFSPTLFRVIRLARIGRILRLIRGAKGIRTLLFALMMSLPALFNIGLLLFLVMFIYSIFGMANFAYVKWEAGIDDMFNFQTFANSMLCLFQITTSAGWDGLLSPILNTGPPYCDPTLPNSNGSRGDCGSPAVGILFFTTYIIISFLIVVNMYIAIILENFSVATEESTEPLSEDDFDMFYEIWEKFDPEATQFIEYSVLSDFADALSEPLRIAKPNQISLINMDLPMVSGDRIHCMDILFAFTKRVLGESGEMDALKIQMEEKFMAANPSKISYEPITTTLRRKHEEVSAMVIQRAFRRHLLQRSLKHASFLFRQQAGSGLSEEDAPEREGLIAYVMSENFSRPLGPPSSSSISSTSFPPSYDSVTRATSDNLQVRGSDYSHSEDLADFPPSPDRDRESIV

In the case of `COc1cccc2c1CC(NC(=O)c1cc3n(n1)CCC(c1ccccc1)O3)CO2` (centres unmarked) [Example 351], the IC50 is less than 1 µM in data set [1] and not below 3 µM in data set [2].
For `O=C(NC1COc2ccc(F)cc2C1)c1cc2n(n1)CCC(c1ccccc1)O2` (centres unmarked) [Example 352], the IC50 in data set [1] is less than 1 µM; in data set [2], not below 3 µM.
On to `O=C(NC1COc2cccc(Br)c2C1)c1cc2n(n1)CCC(c1ccccc1)O2` (centres unmarked) [Example 353], for which the IC50 in data set [1] was less than 10 µM; in data set [2], not below 3 µM.
`O=C(NC1COc2cccc(F)c2C1)c1cc2n(n1)CCC(c1ccccc1)O2` (centres unmarked) [Example 356]: the IC50 in data set [1] is less than 1 µM; in data set [2] it was not below 3 µM.
As for `O=C(N[C@H]1COc2ccc(-c3cncnc3)cc2C1)c1cc2n(n1)CCC(c1ccccc1F)O2` (some centres unmarked) [Example 357], the values for the 50% inhibitory concentration (IC50) in data set [1] and in data set [2] were less than 1 µM and not below 3 µM, respectively.
As for `O=C(N[C@H]1COc2ccc(Cl)cc2C1)c1cc2n(n1)CCC(c1cccnc1)O2` (some centres unmarked) [Example 358], the IC50 was less than 10 µM in data set [1] and not below 3 µM in data set [2].
On to `N#Cc1ccc2c(c1)C[C@@H](NC(=O)c1cc3n(n1)CCC(c1ccccc1F)O3)CO2` (some centres unmarked) [Example 359], for which the IC50 in data set [1] is less than 1 µM; in data set [2] it was not below 3 µM.
For the molecule `COCc1ccc2c(c1)C[C@@H](NC(=O)c1cc3n(n1)CCC(c1ccccc1F)O3)CO2` (some centres unmarked) [Example 361], the IC50 was less than 1 µM in data set [1] and not below 3 µM in data set [2].
On the same counts, the results for `O=C(N[C@H]1COc2ccc(Cl)cc2C1)c1cc2n(n1)CCC(c1ccnc(C(F)(F)F)c1)O2` (some centres unmarked) [Example 362] are less than 10 µM and not below 3 µM.
On to `N#Cc1ccc2c(c1)C[C@@H](NC(=O)c1cc3n(n1)CCC(c1ccc(F)cc1)O3)CO2` (some centres unmarked) [Example 364], for which the values for the half-maximal inhibitory concentration (IC50) in data set [1] and in data set [2] were less than 1 µM and 1 to 3 µM, respectively.
Turning to `N#Cc1ccc2c(c1)C[C@@H](NC(=O)c1cc3n(n1)CCC(c1c(F)cccc1F)O3)CO2` (some centres unmarked) [Example 366], the IC50 in data set [1] is less than 1 µM; in data set [2], 1 to 3 µM.
On the same counts, the results for `N#Cc1ccc2c(c1)C[C@@H](NC(=O)c1cc3n(n1)CCC(C(F)(F)F)O3)CO2` (some centres unmarked) [Example 373] are less than 10 µM and not below 3 µM.
As to `N#Cc1ccc2c(c1)C[C@@H](NC(=O)c1cc3n(n1)CCC(C(F)(F)F)O3)CO2` (some centres unmarked) [Example 374], the IC50 is less than 1 µM in data set [1] and not below 3 µM in data set [2].
As for `O=C(N[C@H]1COc2ccc(-c3cccnc3)cc2C1)c1cc2n(n1)CCC(C(F)(F)F)O2` (some centres unmarked) [Example 375], the IC50 in data set [1] was less than 1 µM; in data set [2] it was not below 3 µM.
For `COc1ccc(-c2ccc3c(c2)C[C@@H](NC(=O)c2cc4n(n2)CCC(C(F)(F)F)O4)CO3)cn1` (some centres unmarked) [Example 378] the same measures were less than 10 µM and not below 3 µM.
For `O=C(N[C@H]1COc2ccc(-c3ccccn3)cc2C1)c1cc2n(n1)CCC(C(F)(F)F)O2` (some centres unmarked) [Example 382] the same measures were less than 10 µM and not below 3 µM.
On to `CC1(C)CCn2nc(C(=O)N[C@H]3COc4ccc(-c5ccccn5)cc4C3)cc2O1` [Example 383], for which the IC50 was less than 1 µM in data set [1] and not below 3 µM in data set [2].
As to `N#Cc1ccc2c(c1)C[C@@H](NC(=O)c1cc3n(n1)CCC(C#CC(F)(F)F)O3)CO2` (some centres unmarked) [Example 386], the values for the IC50 in data set [1] and in data set [2] were less than 1 µM and not below 3 µM, respectively.
On the same counts, the results for `CCCC1CCn2nc(C(=O)N[C@H]3COc4ccc(Cl)cc4C3)cc2O1` (some centres unmarked) [Example 389] are less than 1 µM and 1 to 3 µM.
For `O=C(N[C@H]1COc2ccc(COCC3CC3)cc2C1)c1cc2n(n1)CCC(C(F)(F)F)O2` (some centres unmarked) [Example 391] the same measures were less than 1 µM and not below 3 µM.
For the molecule `O=C(N[C@H]1COc2ccc(COc3ccccn3)cc2C1)c1cc2n(n1)CCC(C(F)(F)F)O2` (some centres unmarked) [Example 392], the IC50 is less than 1 µM in data set [1] and 1 to 3 µM in data set [2].
With `COC(C)(C)CCc1ccc2c(c1)C[C@@H](NC(=O)c1cc3n(n1)CCC(C(F)(F)F)O3)CO2` (some centres unmarked) [Example 400], the IC50 was less than 1 µM in data set [1] and not below 3 µM in data set [2].
